Measurements reported in patent US9915650B2, “Method of detection of cAMP and cGMP via a fluorophore and dequencher complex” (HOFFMANN-LA-ROCHE INC., priority 2006, dated 2018).
“And” between values parts separate entries of the source, which are not always exact repeats. Equal entries are not always repeated. “Also recorded” adds a separate entry of the source. Where two headings read alike, the source gives them in different places.

Experiments:
[1] = Quenching of free MR121 fluorescence by cyclic nucleotides and cAMP derivates (Stern-Volmer plot); type: binding; details: for association constant, Ks, with MR121 / quenching of MR121 (decrease of fluorescence intensity, fluorescence lifetime): 20 nM MR121 in PBS, 30 min RT; for association constant, Ks, with MR121: calculated from linear region (up to 3.2 mM) of I0/I plot; for quenching of MR121 (decrease of fluorescence intensity, fluorescence lifetime): quencher 0-12.8 mM; for quenching of MR121 in low concentrations: concentrations up to 10 μM (range of cellular concentrations)
Protocol: The fluorescent intensity was adjusted to about 60% of the maximal signal of the employed iCCD camera by using attenuation filters and varying exposure times.
(§1) Fluorescence and lifetime were measured after an incubation time of 30 minutes at RT.
In order to analyze the quenching mechanism, measurements of fluorescence intensity and fluorescence lifetime of free MR121 as a function of different molecules (Trp, cAMP, 2-AHA-cAMP, 8-AHA-cAMP, 8-ADOA-cAMP, 2′-AEC-cAMP, N-6-Aminohexyl-cAMP, 8-MBT-cAMP and 8-OH-cAMP, see FIG. 4, 5) were carried out.
as §1
In FIG. 5 the change in fluorescence intensity (I0/I) is plotted for all cAMP derivatives investigated.

[2] = Quenching of ATTO590 by 8-AHA-cAMP (Stern-Vollmer plot); type: binding; details: 20 nM ATTO590 in PBS, 30 min RT; linear region (up to 3.2 mM)
Protocol: (§2) All fluorescence intensity measurements were carried out by means of a plate:vision fluorescence reader (Evotec Technologies GmbH, Schnackenburgallee 114, D-22525 Hamburg, Germany) equipped with a high pressure Xe arc lamp using for the measurements with MR121 an excitation filter at 630 nm (bandwidth 50 nm) and an emission filter at 695 nm (bandwidth 55 nm) and for the measurements with Atto 700 an excitation filter at 655 nm (bandwidth 50 nm) and an emission filter at 710 nm (bandwidth 40 nm). The fluorescent intensity was adjusted to about 60% of the maximal signal of the employed iCCD camera by using attenuation filters and varying exposure times. The lifetime measurements were performed by means of a plate:vision TRF reader (Evotec Technologies GmbH, Schnackenburgallee 114, D-22525 Hamburg, Germany) with an OPO system as light source (GWU Lasertechnik Vertriebsgesellschaft m.b.H., 50374 Erftstadt, Germany) tuned to 630 nm for excitation and the emission filter at 695 nm.
(§3) 20 μl ATTO590 and ATTO655 respectively (in PBS, end concentration 20 nM) and 20 μl quencher (8-AHA-cAMP) in PBS (DMSO end concentration in the assay: 1.25%) were pipetted into a microtiter plate. Fluorescence and lifetime were measured after an incubation time of 30 minutes at RT. […] The association constant, Ks, was calculated from the linear region (up to 3.2 mM) of the plot.

[3] = Quenching of ATTO655 by 8-AHA-cAMP (Stern-Vollmer plot); type: binding; details: 20 nM ATTO655 in PBS, 30 min RT; linear region (up to 3.2 mM)
Protocol: as §2, §3

[4] = Solubility seen in the quenching plot (FIG. 5); type: physicochemical; details: above ˜5 mM, PBS, deviation from linearity of I0/I plot
Text: I0/I: change in fluorescence intensity

[5] = literature value for tryptophane; cited from earlier work
[6] = target: anti-cAMP antibody; experiment: cAMP/cGMP standard curves: displacement of tracer from anti-cAMP antibody, fluorescence readout; type: binding, mouse
[7] = system: CHO-K1 cells; experiment: cAMP cellular assay, forskolin dose response curve; type: cell-based; details: Cricetulus griseus, 0.5 h; CHO-K1, 10,000 cells/well, 1 mM IBMX, 30 min at 37° C.
Protocol: Cell numbers from 2, 500 to 20, 000 cell/well were plated in 25 μl medium and incubated for 20 h at 37° C. The medium was removed and after adding 10 μl of PBS with 0.1% BSA and 1 mM IBMX the cells were incubated for 60 minutes at 37° C. 10 μl of forskolin dilutions in PBS+0.1% BSA+1 mM IBMX from 0.01 to 300 μM (final concentration in 20 μl assay volume) were added and incubated for another 30 minutes at 37° C.

[8] = 20 nM MR121-2-AHA-cAMP tracer, 40 nM antibody, without cells (FIG. 14), read-out: IC50, comparison of standard curves for cAMP and cGMP

NCCOCCOCCNc1nc2c(N)ncnc2n1[C@@H]1O[C@@H]2COP(=O)(O)O[C@H]2[C@H]1O [8-ADOA-cAMP, 8-(8-Amino-3,6-dioxaoctylamino)-cAMP]
association constant, Ks, with MR121 [1]: 475 M⁻¹

NCCCCCCNc1nc2c(N)ncnc2n1[C@@H]1O[C@@H]2COP(=O)(O)O[C@H]2[C@H]1O [8-AHA-cAMP, 8-(6-Aminohexyl)amino-cAMP]
association constant, Ks, with MR121 [1]: 514 M⁻¹ | association constant, Ks, with Atto590 [2]: 282 M⁻¹ | association constant, Ks, with Atto655 [3]: 347 M⁻¹ | solubility [4]: solubility problems

N[C@@H](Cc1c[nH]c2ccccc12)C(=O)O [tryptophane]
quenching of MR121 (decrease of fluorescence intensity, fluorescence lifetime) [1]: decrease in fluorescence intensity without a change in fluorescence lifetime | association constant Ks with MR121, reported in the literature [5]: ~220 M⁻¹

Nc1nc2c(ncn2[C@@H]2O[C@@H]3COP(=O)(O)O[C@H]3[C@H]2O)c(=O)[nH]1 [cGMP, cyclic GMP]
quenching of MR121 (decrease of fluorescence intensity, fluorescence lifetime) [1]: quenches MR121 at higher concentrations | quenching of MR121 in low concentrations [1]: neither cAMP nor cGMP quenches MR121; also recorded: neither cAMP nor cGMP quench the fluorophore | concentration at which the nucleotide has quenching capabilities ([1]; fluorophore quenching): ≥ 1 mM | IC50 [6, 8]: 387 nM

C=C[C@@]1(C)CC(=O)[C@]2(O)[C@@]3(C)[C@@H](O)CCC(C)(C)[C@@H]3[C@H](O)[C@H](OC(C)=O)[C@@]2(C)O1 [forskolin]
IC50 [7]: 3700 nM

Nc1ncnc2c1[nH]c(=O)n2C1OC2COP(=O)(O)OC2C1O (stereo not shown) [8-OH-cAMP, 8-Hydroxy-cAMP]
association constant, Ks, with MR121 [1]: 236 M⁻¹

Nc1ncnc2c1nc(SCCCCS)n2[C@@H]1O[C@@H]2COP(=O)(O)O[C@H]2[C@H]1O [8-MBT-cAMP, 8-(4-Mercaptobutylthio)-cAMP]
association constant, Ks, with MR121 [1]: 758 M⁻¹

Nc1ncnc2c1ncn2[C@@H]1O[C@@H]2COP(=O)(O)O[C@H]2[C@H]1O [cAMP, cyclic adenosine monophosphate]
quenching of MR121 (decrease of fluorescence intensity, fluorescence lifetime) [1]: no quenching at all | quenching of MR121 in low concentrations [1]: neither cAMP nor cGMP quenches MR121; also recorded: neither cAMP nor cGMP quench the fluorophore | IC50 ([6]; 5 nM Atto700-2-AHA-cAMP tracer, 5 nM antibody, without cells (FIG. 15), read-out: IC50, dose response curve with Atto700-2-AHA-cAMP tracer): 48 nM | IC50 [6, 8]: 134 nM | IC50 ([6]; 20 nM MR121-2-AHA-cAMP, 40 nM anti-cAMP antibody, 10'000 CHO-K1 cells/well, read-out: IC50, standard curve with cells): 119 nM and 102 nM | IC50 ([6]; 20 nM MR121-2-AHA-cAMP, 40 nM anti-cAMP antibody, without cells (FIG. 8), read-out: IC50, standard curve without cells): 109 nM

NCCCCCCNc1nc(N)c2ncn([C@@H]3O[C@@H]4COP(=O)(O)O[C@H]4[C@H]3O)c2n1 [2-AHA-cAMP, 2-(6-Aminohexyl)amino-cAMP]
association constant, Ks, with MR121 [1]: 512 M⁻¹

NCCCCCCNc1ncnc2c1ncn2[C@@H]1O[C@@H]2COP(=O)(O)O[C@H]2[C@H]1O [N-6-Aminohexyl-cAMP]
quenching of MR121 (decrease of fluorescence intensity, fluorescence lifetime) [1]: no quenching at all
